Three compounds from patent US9603793B2, “Nano / micro bubbles for drug delivery” (National Tsing Hua University, priority 2014, dated 2017) can be followed below.

One assay deals with cells. Put plainly: Cell images of cells co-cultured with the components (FITC-insulin transmission). Format: cell-based. The conditions noted are these: cells co-cultured with the component; stained with Cld 4, E-cadherin and DAPI; FIG. 3.
Assay [1] in a line: Pharmacokinetic test of nano/micro bubbles (plasma insulin and blood glucose). Format: in vivo. The settings on record: subcutaneous injection of insulin 5 IU/kg; 0 to 10 hours; FIG. 5b. As for the experimental part:
Pharmacokinetic Test of Nano/Micro Bubbles In the present example, groups comprising nano/micro bubbles of the present invention (containing 30 IU/kg of insulin), oral administration (30 IU/kg of insulin) and subcutaneous injection of insulin (5 IU/kg) are compared. The change rates in plasma insulin and blood glucose concentration from 0 to 10 hours after subjects taking insulin or injected with insulin were recorded respectively, and the results are illustrated in FIGS. 5a and 5b.

`CCCCCCCCCCCCOS(=O)(=O)[O-].[Na+]` [SDS, sodium dodecyl sulfate]: in the assay on cells, the “transmission of FITC-insulin (paracellular / transcellular pathway)” value is “can promote transmission of FITC-insulin via both of paracellular pathway and transcellular pathway”.

Turning to `O=C(O)CN(CCN1CC(=O)OC(=O)C1)CCN1CC(=O)OC(=O)C1` [DTPA dianhydride, diethylenetriaminepentaacetic dianhydride], in the assay on cells, the “transmission of FITC-insulin (paracellular / transcellular pathway)” value was “can promote transmission of FITC-insulin via paracellular pathway”.

For the compound insulin, in assay [1], the “change rate of the blood glucose” value is “rapidly declined and rose again”.
